Data taken from ChEMBL document CHEMBL6153155, “Novel Cyclohexyl Amido Acid Antagonists of Lysophosphatidic Acid Type 1 Receptor for the Treatment of Pulmonary Fibrosis” (ACS Med Chem Lett, 2025).
In brackets after ≈: the same amount, converted by molar mass.

Legend:
[1] = Half life in female C57BL/6J mouse at 2 mg/kg, iv measured after 24 hrs by UPLC-MS/MS analysis; format: ADME, organism-based; details: in vivo
[2] = Metabolic stability in female C57BL/6J mouse liver microsomes assessed as intrinsic clearance measured per mg of protein at 0.5 uM measured upto 45 mins in presence of NADPH regenerating system by HPLC-MS/MS analysis; format: ADME, Microsome; details: read-out: CLH
[3] = Total Cmax in female C57BL/6J mouse plasma at 30 mg/kg, po measured after 24 hrs by UPLC-MS/MS analysis; format: ADME, organism-based
[4] = Unbound AUClast in female C57BL/6J mouse lung at 30 mg/kg, po measured after 24 hrs by UPLC-MS/MS analysis; format: ADME, organism-based; details: in vivo
[5] = Total Cmax in female C57BL/6J mouse lung at 30 mg/kg, po measured after 24 hrs by UPLC-MS/MS analysis; format: ADME, organism-based
[6] = Tlast in female C57BL/6J mouse plasma at 30 mg/kg, po measured after 24 hrs by UPLC-MS/MS analysis; format: ADME, organism-based; details: in vivo
[7] = target: BSEP (Homo sapiens, UniProt O95342); assay: (§1) Inhibition of BSEP in cryopreserved sandwich-cultured human hepatocytes by measuring reduction in TCA biliary clearance using taurocholic acid as substrate at 50 uM relative to control; format: cell-based, Hepatocyte; details: cryopreserved sandwich-cultured hepatocytes, probe taurocholic acid
Chain of BSEP (O95342 whole entry): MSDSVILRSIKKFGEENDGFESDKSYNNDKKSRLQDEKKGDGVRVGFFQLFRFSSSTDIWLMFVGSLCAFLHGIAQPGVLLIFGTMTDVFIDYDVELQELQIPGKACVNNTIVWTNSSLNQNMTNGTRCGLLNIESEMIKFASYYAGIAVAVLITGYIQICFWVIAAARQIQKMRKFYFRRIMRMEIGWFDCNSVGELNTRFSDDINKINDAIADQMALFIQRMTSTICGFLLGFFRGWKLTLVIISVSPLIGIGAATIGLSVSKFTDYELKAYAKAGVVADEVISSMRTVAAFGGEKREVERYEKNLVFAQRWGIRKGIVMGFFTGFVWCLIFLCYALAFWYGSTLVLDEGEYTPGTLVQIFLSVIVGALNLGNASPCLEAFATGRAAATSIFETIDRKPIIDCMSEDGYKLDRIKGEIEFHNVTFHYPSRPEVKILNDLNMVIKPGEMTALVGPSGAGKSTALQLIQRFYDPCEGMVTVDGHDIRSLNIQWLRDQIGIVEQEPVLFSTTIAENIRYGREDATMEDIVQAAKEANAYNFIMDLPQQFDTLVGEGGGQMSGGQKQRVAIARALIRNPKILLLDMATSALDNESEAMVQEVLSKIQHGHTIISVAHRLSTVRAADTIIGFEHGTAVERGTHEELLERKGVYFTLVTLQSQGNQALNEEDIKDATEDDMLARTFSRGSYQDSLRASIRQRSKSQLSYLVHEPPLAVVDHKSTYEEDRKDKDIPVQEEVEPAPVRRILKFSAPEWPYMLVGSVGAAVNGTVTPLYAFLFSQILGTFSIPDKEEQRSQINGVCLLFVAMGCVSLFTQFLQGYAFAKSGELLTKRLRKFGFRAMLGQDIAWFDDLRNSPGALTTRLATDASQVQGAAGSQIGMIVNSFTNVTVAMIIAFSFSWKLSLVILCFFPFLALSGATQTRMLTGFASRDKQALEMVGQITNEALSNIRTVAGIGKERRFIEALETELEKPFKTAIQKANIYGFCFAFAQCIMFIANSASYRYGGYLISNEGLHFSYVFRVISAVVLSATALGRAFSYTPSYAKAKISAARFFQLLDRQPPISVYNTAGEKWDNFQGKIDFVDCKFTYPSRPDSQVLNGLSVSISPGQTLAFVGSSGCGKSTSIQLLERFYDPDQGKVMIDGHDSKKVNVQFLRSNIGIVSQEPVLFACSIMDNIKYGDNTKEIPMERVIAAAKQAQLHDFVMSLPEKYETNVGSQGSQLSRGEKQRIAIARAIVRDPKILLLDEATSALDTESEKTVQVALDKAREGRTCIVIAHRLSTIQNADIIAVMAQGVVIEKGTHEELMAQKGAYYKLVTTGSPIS

[8] = Unbound Cmax in female C57BL/6J mouse plasma at 30 mg/kg, po measured after 24 hrs by UPLC-MS/MS analysis; format: ADME, organism-based; details: in vivo
[9] = Aqueous solubility of the compound at pH 7.4; format: physicochemical; details: buffer
[10] = Unbound Cmax in female C57BL/6J mouse lung at 30 mg/kg, po measured after 24 hrs by UPLC-MS/MS analysis; format: ADME, organism-based; details: in vivo
[11] = Unbound AUClast in female C57BL/6J mouse plasma at 30 mg/kg, po measured after 24 hrs by UPLC-MS/MS analysis; format: ADME, organism-based; details: in vivo
[12] = Tlast in female C57BL/6J mouse lung at 30 mg/kg, po measured after 24 hrs by UPLC-MS/MS analysis; format: ADME, organism-based; details: in vivo
[13] = Total AUClast in female C57BL/6J mouse plasma at 30 mg/kg, po measured after 24 hrs by UPLC-MS/MS analysis; format: ADME, organism-based; details: in vivo
[14] = Clearance in female C57BL/6J mouse at 2 mg/kg, iv measured after 24 hrs by UPLC-MS/MS analysis; format: ADME, organism-based; details: in vivo
[15] = Metabolic stability in human liver microsomes assessed as intrinsic clearance measured per mg of protein at 0.5 uM measured upto 45 mins in presence of NADPH regenerating system by HPLC-MS/MS analysis; format: ADME, Microsome; details: read-out: CLH
[16] = target: T1, Bile salt export pump (Homo sapiens, UniProt O95342); assay: Inhibition of BSEP in cryopreserved sandwich-cultured human hepatocytes by measuring reduction in TCA biliary clearance using taurocholic acid as substrate; format: cell-based, Hepatocyte
T1 sequence (O95342 whole entry): as above

[17] = Oral bioavailability in female C57BL/6J mouse at 2 mg/kg, iv measured after 24 hrs by UPLC-MS/MS analysis; format: ADME, organism-based; details: in vivo
[18] = Lipophilicity, logD of compound at pH 7.4 by chromatographic hydrophobicity index method; format: physicochemical; details: buffer
[19] = target: Lysophosphatidic acid receptor 1 (Mus musculus, UniProt P61793); assay: Antagonist activity at mouse LPA1 transfected in human HeLa cells incubated for 30 mins by FLIPR-based calcium mobilization assay; format: cell-based
Chain of Lysophosphatidic acid receptor 1 (P61793 whole entry): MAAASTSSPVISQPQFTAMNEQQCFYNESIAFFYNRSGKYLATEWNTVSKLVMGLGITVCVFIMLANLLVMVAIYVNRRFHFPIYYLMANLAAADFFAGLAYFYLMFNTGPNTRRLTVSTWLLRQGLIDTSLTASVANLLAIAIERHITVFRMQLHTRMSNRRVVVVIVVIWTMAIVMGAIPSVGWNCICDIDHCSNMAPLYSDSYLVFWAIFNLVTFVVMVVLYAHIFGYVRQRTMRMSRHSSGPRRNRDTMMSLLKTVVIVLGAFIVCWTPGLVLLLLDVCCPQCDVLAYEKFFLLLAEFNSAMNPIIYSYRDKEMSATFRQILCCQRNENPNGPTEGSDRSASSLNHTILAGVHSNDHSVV

[20] = Volume of distribution at steady state in female C57BL/6J mouse at 2 mg/kg, iv measured after 24 hrs by UPLC-MS/MS analysis; format: ADME, organism-based; details: in vivo, read-out: Vdss
[21] = Total AUClast in female C57BL/6J mouse lung at 30 mg/kg, po measured after 24 hrs by UPLC-MS/MS analysis; format: ADME, organism-based; details: in vivo
[22] = system: Mus musculus; assay: Inhibition of LPA-stimulated histamine release in male CD1 mouse plasma assessed as effective dose administered as po dose pretreated for 30 mins followed by LPA addition measured after 2 mins by enzyme immunoassay; format: functional; details: 32 min
[23] = target: T1, Bile salt export pump; assay: as §1; format: cell-based, Hepatocyte; details: hepatocytes, 50 µM
[24] = Drug uptake in mouse lung at 30 mg/kg, po measured upto 24 hrs; format: ADME, organism-based; details: in vivo

## Cc1nc(-c2cnn(C)c2NC(=O)O[C@H](C)c2ccccc2Cl)ccc1NC(=O)[C@H]1CCCC[C@@H]1C(=O)O
[1]
  half-life: 2.48 h
[2]
  microsomal CLint at 0.5 µM: < 2 µL/min/mg
[3]
  Cmax: 54200 ng/mL
[4]
  fAUClast: 1071 h/ng/mL
[5]
  Cmax: 7950 ng/mL
[6]
  Tlast: 8 h
[7]
  inhibition at 50 µM: 28%
[8]
  fCmax: 1758 ng/mL
[9]
  solubility: 295 µM (≈ 159 µg/mL)
[10]
  fCmax: 498 ng/mL
[11]
  fAUClast: 2621 h/ng/mL
[12]
  Tlast: 8 h
[13]
  AUClast: 80800 h/ng/mL
[14]
  clearance: 2.99 mL/min/kg
[15]
  microsomal CLint at 0.5 µM: 7 µL/min/mg
[16]
  IC50: > 100000 nM
[17]
  bioavailability: 49%
[18]
  chromatographic logD: 1.12
[19]
  IC50: 25.1 nM
[20]
  Vd: 0.35 L/kg
[21]
  AUClast: 17100 h/ng/mL

## Cc1nc(-c2onc(C)c2CNC(=O)O[C@H](C)c2ccccc2Cl)ccc1NC(=O)[C@H]1CCCC[C@@H]1C(=O)O
[2]
  microsomal CLint at 0.5 µM: 11.8 µL/min/mg
[7]
  inhibition at 50 µM: 82%
[9]
  solubility: 525 µM (≈ 292 µg/mL)
[15]
  microsomal CLint at 0.5 µM: 7 µL/min/mg
[18]
  chromatographic logD: 1.69

## Cc1noc(-c2ccc(NC(=O)[C@H]3CCCC[C@@H]3C(=O)O)cn2)c1NC(=O)O[C@H](C)c1ccccc1Cl
[1]
  half-life: 0.69 h
[2]
  microsomal CLint at 0.5 µM: 4 µL/min/mg
[3]
  Cmax: 26500 ng/mL
[4]
  fAUClast: 262 h/ng/mL
[5]
  Cmax: 4230 ng/mL
[6]
  Tlast: 24 h
[7]
  inhibition at 50 µM: 50%
[8]
  fCmax: 749 ng/mL
[9]
  solubility: 458 µM (≈ 242 µg/mL)
[10]
  fCmax: 139 ng/mL
[11]
  fAUClast: 1249 h/ng/mL
[12]
  Tlast: 8 h
[13]
  AUClast: 44200 h/ng/mL
[14]
  clearance: 6.96 mL/min/kg
[15]
  microsomal CLint at 0.5 µM: 6.3 µL/min/mg
[16]
  IC50: 50100 nM
[17]
  bioavailability: 66%
[22]
  ED50: 0.1 mg/kg
[18]
  chromatographic logD: 1.52
[19]
  IC50: 31.6 nM
[20]
  Vd: 0.24 L/kg
[21]
  AUClast: 8000 h/ng/mL

## CCC[C@@H](C)OC(=O)Nc1c(C)noc1-c1ccc(NC(=O)[C@H]2CCCC[C@@H]2C(=O)O)c(C)n1
[2]
  microsomal CLint at 0.5 µM: 3.7 µL/min/mg
[7]
  inhibition at 50 µM: 48%
[9]
  solubility: 519 µM (≈ 245 µg/mL)
[15]
  microsomal CLint at 0.5 µM: 3.1 µL/min/mg
[18]
  chromatographic logD: 1.36

## Cc1nc(-c2onc(C)c2Nc2cncc(C3CC3)n2)ccc1NC(=O)[C@H]1CCCC[C@@H]1C(=O)O
[23]
  inhibition (INH): Not_active

## CCOc1cncc(Nc2c(C)noc2-c2ccc(NC(=O)[C@H]3CCCC[C@@H]3C(=O)O)c(C)n2)n1
[23]
  inhibition (INH): Not_active

## Cc1nc(-c2onc(C)c2Nc2cncc(OC(C)C)n2)ccc1NC(=O)[C@H]1CCCC[C@@H]1C(=O)O
[1]
  half-life: 1.96 h
[2]
  microsomal CLint at 0.5 µM: 11 µL/min/mg
[3]
  Cmax: 60600 ng/mL
[4]
  fAUClast: 3846 h/ng/mL
[5]
  Cmax: 10300 ng/mL
[6]
  Tlast: 8 h
[7]
  inhibition at 50 µM: 18%
[8]
  fCmax: 1726 ng/mL
[9]
  solubility: 644 µM (≈ 318 µg/mL)
[10]
  fCmax: 1597 ng/mL
[11]
  fAUClast: 3105 h/ng/mL
[12]
  Tlast: 8 h
[13]
  AUClast: 109000 h/ng/mL
[14]
  clearance: 2.05 mL/min/kg
[15]
  microsomal CLint at 0.5 µM: < 2 µL/min/mg
[16]
  IC50: > 100000 nM
[17]
  bioavailability: 45%
[18]
  chromatographic logD: 0.86
[19]
  IC50: 39.8 nM
[20]
  Vd: 0.16 L/kg
[21]
  AUClast: 24800 h/ng/mL

## Cc1noc(-c2ccc(NC(=O)[C@@H]3CCCC[C@H]3C(=O)O)cc2)c1NC(=O)O[C@H](C)c1ccccc1Cl
[7]
  inhibition at 50 µM: 66%

## Cc1cc(NC(=O)[C@H]2CCCC[C@@H]2C(=O)O)c(C)nc1-c1onc(C)c1NC(=O)O[C@H](C)c1ccccc1Cl
[2]
  microsomal CLint at 0.5 µM: 4 µL/min/mg
[7]
  inhibition at 50 µM: 73%
[9]
  solubility: 509 µM (≈ 282 µg/mL)
[15]
  microsomal CLint at 0.5 µM: < 2 µL/min/mg
[18]
  chromatographic logD: 1.69

## Cc1nc(-c2onc(C)c2NC(=O)O[C@H](C)c2ccccc2)ccc1NC(=O)[C@H]1CCCC[C@@H]1C(=O)O
[1]
  half-life: 1.81 h
[2]
  microsomal CLint at 0.5 µM: 3.5 µL/min/mg
[3]
  Cmax: 89700 ng/mL
[4]
  fAUClast: 3967 h/ng/mL
[5]
  Cmax: 17700 ng/mL
[6]
  Tlast: 24 h
[7]
  inhibition at 50 µM: 28%
[8]
  fCmax: 2189 ng/mL
[9]
  solubility: 641 µM (≈ 325 µg/mL)
[10]
  fCmax: 1225 ng/mL
[11]
  fAUClast: 7686 h/ng/mL
[12]
  Tlast: 8 h
[13]
  AUClast: 315000 h/ng/mL
[14]
  clearance: 1.75 mL/min/kg
[15]
  microsomal CLint at 0.5 µM: 2.3 µL/min/mg
[16]
  IC50: 100000 nM
[17]
  bioavailability: 100%
[22]
  ED50: 0.1 mg/kg
[24]
  Drug uptake: Active
[18]
  chromatographic logD: 1.27
[19]
  IC50: 12.6 nM
[20]
  Vd: 0.2 L/kg
[21]
  AUClast: 57300 h/ng/mL

## Cc1nc(-c2onc(C)c2NC(=O)O[C@H](C)c2ccccn2)ccc1NC(=O)[C@H]1CCCC[C@@H]1C(=O)O
[2]
  microsomal CLint at 0.5 µM: 6 µL/min/mg
[7]
  inhibition at 50 µM: 0%
[15]
  microsomal CLint at 0.5 µM: 0.3 µL/min/mg

## Cc1nc(-c2ncccc2NC(=O)O[C@H](C)c2ccccc2Cl)ccc1NC(=O)[C@H]1CCCC[C@@H]1C(=O)O
[23]
  inhibition (INH): Not_active

## Cc1noc(-c2ccc(NC(=O)[C@H]3CCCC[C@@H]3C(=O)O)c(F)n2)c1NC(=O)O[C@H](C)c1ccccc1Cl
[2]
  microsomal CLint at 0.5 µM: 5.4 µL/min/mg
[7]
  inhibition at 50 µM: 50%
[9]
  solubility: 555 µM (≈ 302 µg/mL)
[15]
  microsomal CLint at 0.5 µM: 1 µL/min/mg
[18]
  chromatographic logD: 1.5

## Cc1nc(-c2snc(C)c2NC(=O)O[C@H](C)c2ccccc2Cl)ccc1NC(=O)[C@H]1CCCC[C@@H]1C(=O)O
[2]
  microsomal CLint at 0.5 µM: 7.6 µL/min/mg
[7]
  inhibition at 50 µM: 64%
[9]
  solubility: 503 µM (≈ 280 µg/mL)
[15]
  microsomal CLint at 0.5 µM: 7.6 µL/min/mg
[18]
  chromatographic logD: 1.55

## Cc1nc(-c2onc(C)c2Nc2cncc(OC3CC3)n2)ccc1NC(=O)[C@H]1CCCC[C@@H]1C(=O)O
[23]
  inhibition (INH): Not_active

## CCNc1cncc(Nc2c(C)noc2-c2ccc(NC(=O)[C@H]3CCCC[C@@H]3C(=O)O)c(C)n2)n1
[23]
  inhibition (INH): Not_active

## Cc1noc(-c2ccc(NC(=O)[C@H]3CCCC[C@@H]3C(=O)O)cc2)c1NC(=O)O[C@H](C)c1ccccc1Cl
[2]
  microsomal CLint at 0.5 µM: 19.5 µL/min/mg
[7]
  inhibition at 50 µM: 72%
[15]
  microsomal CLint at 0.5 µM: 2.84 µL/min/mg
[18]
  chromatographic logD: 1.39

## Cc1noc(-c2ccc(NC(=O)C3CCCC(C(=O)O)C3)cc2)c1NC(=O)O[C@H](C)c1ccccc1Cl (single isomer, unassigned; diastereomer 1)
[23]
  inhibition (INH): Not_active
